The values that follow come from US11685732B2, “MYST family histone acetyltransferase inhibitors” (Epizyme, Inc., priority 2017, dated 2023).

Each structure is given as a SMILES string.

The target of one assay is KAT-6A (Homo sapiens (Human), UniProt Q92794). The experiment in a line: KAT-6A biochemical inhibition assay (SAMDI mass spectrometry). The gist of the method:
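Enzyme (12.5 nM final) pre-incubated with serially diluted compounds (2% DMSO final) in 50 mM Tris pH 8.0 with Tween20, gelatin and 1 mM DTT. Reaction started with 1 μM peptide substrate and 1 μM acetyl-CoA, run 90 min at 25 °C, quenched with 0.5% formic acid, read by SAMDI-TOF mass spectrometry; IC50 derived.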

The next assay concerns the target KAT-7 (Homo sapiens (Human), UniProt O95251). Description: KAT-7 biochemical inhibition assay (SAMDI mass spectrometry). The gist of the method:
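KAT-7 (6 nM) was pre-incubated with serially diluted compound (2% DMSO) in Tris pH 8.0 with DTT. Reaction with 1 μM peptide and 2 μM acetyl-CoA ran 120 min at 25 °C and was stopped with 0.5% formic acid. Acetylation was read by SAMDI-TOF mass spectrometry to give IC50.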

A further assay addresses KAT-8 (Homo sapiens (Human), UniProt Q9H7Z6). The experiment in a line: KAT-8 biochemical inhibition assay (SAMDI mass spectrometry). The gist of the method: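 Compounds in 2% DMSO pre-incubated with 12.5 nM enzyme in 50 mM Tris pH 8.0 with Tween20, gelatin and 1 mM DTT. Then 1 μM peptide and 5 μM acetyl-CoA were added, 90 min at 25 °C; formic acid stop and SAMDI-TOF mass spectrometry for IC50.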

A further assay addresses KAT-5 (Homo sapiens (Human), UniProt Q92993). The experiment in a line: KAT-5 biochemical inhibition assay (SAMDI mass spectrometry). The method in brief:
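KAT-5 at 9 nM final was preincubated with serially diluted compound (2% DMSO) in 50 mM Tris pH 8.0 with 1 mM DTT. Reaction ran with 1 μM peptide substrate and 0.5 μM acetyl-CoA for 90 min at 25° C, was quenched with 0.5% formic acid, and was read by SAMDI-TOF mass spectrometry.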

Sequence of KAT-8 (Q9H7Z6 other isoform, or with tags, fused parts or gaps): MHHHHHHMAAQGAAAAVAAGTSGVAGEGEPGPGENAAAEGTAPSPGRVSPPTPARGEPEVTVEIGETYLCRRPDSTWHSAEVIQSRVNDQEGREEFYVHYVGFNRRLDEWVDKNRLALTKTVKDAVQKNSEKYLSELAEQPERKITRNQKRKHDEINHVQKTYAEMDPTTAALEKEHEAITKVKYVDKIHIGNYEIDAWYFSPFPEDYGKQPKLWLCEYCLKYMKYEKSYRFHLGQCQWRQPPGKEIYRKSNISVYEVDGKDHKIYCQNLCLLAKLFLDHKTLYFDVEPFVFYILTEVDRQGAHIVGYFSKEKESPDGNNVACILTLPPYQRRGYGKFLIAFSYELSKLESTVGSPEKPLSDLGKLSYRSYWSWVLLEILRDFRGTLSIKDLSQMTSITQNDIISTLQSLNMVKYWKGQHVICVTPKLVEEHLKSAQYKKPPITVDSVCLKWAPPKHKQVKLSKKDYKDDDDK
Sequence of KAT-7 (O95251 other isoform, or with tags, fused parts or gaps): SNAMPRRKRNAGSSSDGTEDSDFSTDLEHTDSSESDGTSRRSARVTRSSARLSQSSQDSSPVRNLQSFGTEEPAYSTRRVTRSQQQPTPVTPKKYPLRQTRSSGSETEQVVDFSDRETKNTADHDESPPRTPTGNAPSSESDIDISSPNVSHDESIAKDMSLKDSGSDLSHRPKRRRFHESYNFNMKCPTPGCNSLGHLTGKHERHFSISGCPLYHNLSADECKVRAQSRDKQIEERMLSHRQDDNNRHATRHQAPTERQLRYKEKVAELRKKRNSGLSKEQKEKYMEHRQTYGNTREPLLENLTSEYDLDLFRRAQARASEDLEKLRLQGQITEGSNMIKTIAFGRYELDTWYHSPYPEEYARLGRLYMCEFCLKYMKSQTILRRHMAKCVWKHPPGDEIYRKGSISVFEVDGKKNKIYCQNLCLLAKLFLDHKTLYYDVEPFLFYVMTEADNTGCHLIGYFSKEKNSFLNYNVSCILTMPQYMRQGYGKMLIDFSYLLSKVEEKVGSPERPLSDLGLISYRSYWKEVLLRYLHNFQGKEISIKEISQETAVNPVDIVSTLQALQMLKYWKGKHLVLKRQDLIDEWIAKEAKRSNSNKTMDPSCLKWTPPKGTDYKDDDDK
Sequence of KAT-5 (Q92993 other isoform, or with tags, fused parts or gaps): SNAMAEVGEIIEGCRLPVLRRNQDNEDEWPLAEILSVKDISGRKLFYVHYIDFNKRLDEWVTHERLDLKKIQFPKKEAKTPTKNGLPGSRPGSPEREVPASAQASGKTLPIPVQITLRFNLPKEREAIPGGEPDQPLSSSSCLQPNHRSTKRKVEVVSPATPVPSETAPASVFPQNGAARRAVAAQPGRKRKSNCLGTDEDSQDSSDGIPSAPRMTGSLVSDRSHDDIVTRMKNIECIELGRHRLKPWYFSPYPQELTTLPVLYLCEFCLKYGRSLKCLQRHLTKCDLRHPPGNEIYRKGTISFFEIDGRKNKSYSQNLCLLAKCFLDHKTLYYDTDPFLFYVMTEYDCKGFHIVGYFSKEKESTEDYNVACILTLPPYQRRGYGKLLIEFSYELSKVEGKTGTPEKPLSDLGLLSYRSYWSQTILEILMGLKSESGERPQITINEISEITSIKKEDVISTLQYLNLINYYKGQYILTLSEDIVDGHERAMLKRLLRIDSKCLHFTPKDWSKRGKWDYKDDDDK
Sequence of KAT-6A (Q92794 other isoform, or with tags, fused parts or gaps): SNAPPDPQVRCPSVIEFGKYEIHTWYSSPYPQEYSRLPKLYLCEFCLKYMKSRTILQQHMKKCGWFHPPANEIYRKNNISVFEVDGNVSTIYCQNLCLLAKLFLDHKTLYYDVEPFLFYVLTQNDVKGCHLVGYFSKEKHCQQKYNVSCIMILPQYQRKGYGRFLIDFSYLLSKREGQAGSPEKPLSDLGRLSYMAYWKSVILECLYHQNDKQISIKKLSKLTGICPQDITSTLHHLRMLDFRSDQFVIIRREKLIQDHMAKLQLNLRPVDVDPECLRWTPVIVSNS

With `Cn1cnc(-c2cc(Cl)c(F)c(C(=O)NNS(=O)(=O)c3cnnn3C)c2)c1` [Compound I-71], the half-inhibitory concentration (IC50) was 10 to 50 µM against KAT-6A, below 10 µM on KAT-7, 10 to 50 µM on KAT-8 and 10 to 50 µM against KAT-5.
Consider `Cn1cnc(-c2cc(Cl)c(F)c(C(=O)NNS(=O)(=O)c3cnn(C)n3)c2)c1` [Compound I-72], for which the IC50 was below 10 µM on KAT-6A, below 10 µM at KAT-7, 10 to 50 µM on KAT-8 and 10 to 50 µM on KAT-5.
`CCC(=O)N1CCC(CS(=O)(=O)NNC(=O)c2cc(-c3cn(C)cn3)cc(Cl)c2F)C1` (stereo not shown) [Compound I-73]: the IC50 against KAT-6A was 10 to 50 µM; at KAT-7 it was below 10 µM; at KAT-8, 10 to 50 µM; at KAT-5, below 10 µM.
For `Cc1ncn(-c2cc(Cl)c(F)c(C(=O)NNS(=O)(=O)CC3CCOCC3)c2)n1` [Compound I-74], the IC50 against KAT-6A, against KAT-7, at KAT-8 and against KAT-5 was 10 to 50 µM throughout.
With `CCS(=O)(=O)N1CCC(CS(=O)(=O)NNC(=O)c2cc(-c3cn(C)cn3)cc(Cl)c2F)C1` (stereo not shown) [Compound I-75], the IC50 against KAT-6A was below 10 µM; at KAT-7 it was below 10 µM; against KAT-8 it was 10 to 50 µM; against KAT-5, below 10 µM.
As to `Cc1ncn(-c2cc(Cl)c(F)c(C(=O)NNS(=O)(=O)C3CCOCC3)c2)n1` [Compound I-77], the IC50 against KAT-6A, on KAT-7, at KAT-8 and at KAT-5 was 10 to 50 µM each time.
Take `CNC(=O)N1CCC(CS(=O)(=O)NNC(=O)c2cc(-c3cn(C)cn3)cc(Cl)c2F)C1` (stereo not shown) [Compound I-78]: the IC50 against KAT-6A is 10 to 50 µM; at KAT-7 it was below 10 µM; at KAT-8 it was 10 to 50 µM; on KAT-5, below 10 µM.
As for `CN1CCC(CS(=O)(=O)NNC(=O)c2cc(-c3cn(C)cn3)cc(Cl)c2F)C1` (stereo not shown) [Compound I-79], the IC50 was 10 to 50 µM against KAT-6A, below 10 µM against KAT-7, 10 to 50 µM at KAT-8 and 10 to 50 µM at KAT-5.
For `Cc1nc(-c2cc(Cl)c(F)c(C(=O)NNS(=O)(=O)CC3CCOCC3)c2)co1` [Compound I-80], the IC50 was below 10 µM against KAT-6A, 10 to 50 µM at KAT-7, 10 to 50 µM on KAT-8 and 10 to 50 µM on KAT-5.
On to `Cc1ncc(-c2cc(Cl)c(F)c(C(=O)NNS(=O)(=O)CC3CCOCC3)c2)[nH]1` [Compound I-81], for which the IC50 on KAT-6A is below 10 µM; on KAT-7, 10 to 50 µM; at KAT-8, 10 to 50 µM; at KAT-5, below 10 µM.
In the case of `CCS(=O)(=O)N1CCCC(CS(=O)(=O)NNC(=O)c2cc(-c3cn(C)cn3)cc(Cl)c2F)C1` (stereo not shown) [Compound I-82], the concentration for half-maximal inhibition (IC50) against KAT-6A was below 10 µM; at KAT-7, below 10 µM; against KAT-8, 10 to 50 µM; against KAT-5, below 10 µM.
As to `Cn1cnc(-c2cc(Cl)c(F)c(C(=O)NNS(=O)(=O)CC3CCN(C(=O)CCO)C3)c2)c1` (stereo not shown) [Compound I-83], the IC50 against KAT-6A is 10 to 50 µM; at KAT-7, below 10 µM; against KAT-8, 10 to 50 µM; on KAT-5, 10 to 50 µM.
As for `Cn1cnc(-c2cc(Cl)c(F)c(C(=O)NNS(=O)(=O)CC3CCN(S(=O)(=O)C4CC4)C3)c2)c1` (stereo not shown) [Compound I-84], the IC50 at KAT-6A was below 10 µM; at KAT-7, below 10 µM; on KAT-8 it was 10 to 50 µM; against KAT-5, below 10 µM.
`CCCS(=O)(=O)N1CCC(CS(=O)(=O)NNC(=O)c2cc(-c3cn(C)cn3)cc(Cl)c2F)C1` (stereo not shown) [Compound I-85]: the IC50 was below 10 µM against KAT-6A, below 10 µM against KAT-7, 10 to 50 µM against KAT-8 and below 10 µM against KAT-5.
`Cn1cnc(-c2cc(Cl)c(F)c(C(=O)NNS(=O)(=O)CC3CCCN(S(=O)(=O)C4CC4)C3)c2)c1` (stereo not shown) [Compound I-86]: the IC50 against KAT-6A is below 10 µM; at KAT-7, below 10 µM; at KAT-8, 10 to 50 µM; against KAT-5 it was below 10 µM.
As to `O=C(NNS(=O)(=O)CC1CCCCC1)c1cc(-n2ccnn2)cc(Cl)c1F` [Compound I-87], the IC50 was below 10 µM on KAT-6A, 10 to 50 µM on KAT-7, 10 to 50 µM against KAT-8 and 10 to 50 µM at KAT-5.
As for `CCNC(=O)N1CCC(CS(=O)(=O)NNC(=O)c2cc(-c3cn(C)cn3)cc(Cl)c2F)C1` (stereo not shown) [Compound I-88], the IC50 against KAT-6A was 10 to 50 µM; on KAT-7, below 10 µM; at KAT-8, 10 to 50 µM; against KAT-5, below 10 µM.
Regarding `Cn1cnc(-c2cc(Cl)c(F)c(C(=O)NNS(=O)(=O)CC3CCN(C(=O)CO)C3)c2)c1` (stereo not shown) [Compound I-89], the IC50 was 10 to 50 µM against KAT-6A, below 10 µM against KAT-7, 10 to 50 µM at KAT-8 and 10 to 50 µM against KAT-5.
As for `O=C(NNS(=O)(=O)CC1CCOCC1)c1cc(-n2ccnn2)cc(Cl)c1F` [Compound I-90], the IC50 at KAT-6A, on KAT-7, at KAT-8 and at KAT-5 was 10 to 50 µM throughout.
Turning to `Cn1cnc(-c2cc(Cl)c(F)c(C(=O)NNS(=O)(=O)CC3CCCC(S(=O)(=O)C4CCC4)C3)c2)c1` (stereo not shown) [Compound I-91], the IC50 against KAT-6A is below 10 µM; at KAT-7 it was below 10 µM; against KAT-8 it was 10 to 50 µM; at KAT-5, below 10 µM.
Consider `CC(C)S(=O)(=O)N1CCC(CS(=O)(=O)NNC(=O)c2cc(-c3cn(C)cn3)cc(Cl)c2F)C1` (stereo not shown) [Compound I-92], for which the IC50 was below 10 µM against KAT-6A, below 10 µM against KAT-7, 10 to 50 µM against KAT-8 and below 10 µM at KAT-5.
For the compound `Cn1cnc(-c2cc(Cl)c(F)c(C(=O)NNS(=O)(=O)C[C@H]3CC[C@H](N)CC3)c2)c1` [Compound I-93], the IC50 against KAT-6A is 10 to 50 µM; against KAT-7 it was below 10 µM; on KAT-8, 10 to 50 µM; at KAT-5 it was 10 to 50 µM.
With `CCCS(=O)(=O)N1CCCC(CS(=O)(=O)NNC(=O)c2cc(-c3cn(C)cn3)cc(Cl)c2F)C1` (stereo not shown) [Compound I-94], the IC50 against KAT-6A is below 10 µM; at KAT-7 it was below 10 µM; at KAT-8, 10 to 50 µM; against KAT-5, below 10 µM.
`Cn1cnc(-c2cc(Cl)c(F)c(C(=O)NNS(=O)(=O)CC3CN(C(=O)OC(C)(C)C)C3)c2)c1` [Compound I-95]: the IC50 on KAT-6A was below 10 µM; at KAT-7 it was below 10 µM; against KAT-8, 10 to 50 µM; at KAT-5, 10 to 50 µM.
With `Cn1cnc(-c2cc(Cl)c(F)c(C(=O)NNS(=O)(=O)C[C@H]3CC[C@H](NC(=O)OC(C)(C)C)CC3)c2)c1` [Compound I-96], the IC50 was below 10 µM against KAT-6A, below 10 µM against KAT-7, 10 to 50 µM on KAT-8 and below 10 µM against KAT-5.
Turning to `CCNC(=O)NC1CCCC(CS(=O)(=O)NNC(=O)c2cc(-c3cn(C)cn3)cc(Cl)c2F)C1` (stereo not shown) [Compound I-97], the IC50 at KAT-6A is below 10 µM; against KAT-7, below 10 µM; at KAT-8, 10 to 50 µM; on KAT-5 it was below 10 µM.
In the case of `Cc1ncnn1-c1cc(Cl)c(F)c(C(=O)NNS(=O)(=O)CC2CCOCC2)c1` [Compound I-100], the IC50 at KAT-6A, at KAT-7, on KAT-8 and against KAT-5 was 10 to 50 µM throughout.
As for `CC(=O)N[C@H]1CC[C@H](CS(=O)(=O)NNC(=O)c2cc(-c3cn(C)cn3)cc(Cl)c2F)CC1` [Compound I-101], the IC50 at KAT-6A was below 10 µM; at KAT-7 it was below 10 µM; against KAT-8, 10 to 50 µM; against KAT-5, below 10 µM.
Turning to `Cn1cnc(-c2cc(Cl)c(F)c(C(=O)NNS(=O)(=O)CC3CCCC(NC(=O)OC(C)(C)C)C3)c2)c1` (stereo not shown) [Compound I-102], the IC50 is below 10 µM against KAT-6A, below 10 µM at KAT-7, 10 to 50 µM at KAT-8 and below 10 µM against KAT-5.
For the compound `Cn1cnc(-c2cc(Cl)c(F)c(C(=O)NNS(=O)(=O)CC3CCCC(N)C3)c2)c1` (stereo not shown) [Compound I-103], the half-maximal inhibitory concentration (IC50) at KAT-6A is 10 to 50 µM; against KAT-7, below 10 µM; at KAT-8, 10 to 50 µM; against KAT-5 it was 10 to 50 µM.
With `CN(C)C(=O)NC1CCCC(CS(=O)(=O)NNC(=O)c2cc(-c3cn(C)cn3)cc(Cl)c2F)C1` (stereo not shown) [Compound I-104], the IC50 is below 10 µM against KAT-6A, below 10 µM against KAT-7, 10 to 50 µM on KAT-8 and below 10 µM at KAT-5.
Regarding `CCNC(=O)N1CCCC(CS(=O)(=O)NNC(=O)c2cc(-c3cn(C)cn3)cc(Cl)c2F)C1` (stereo not shown) [Compound I-105], the IC50 is below 10 µM at KAT-6A, below 10 µM against KAT-7, 10 to 50 µM on KAT-8 and below 10 µM on KAT-5.
Turning to `Cn1cnc(-c2cc(Cl)c(F)c(C(=O)NNS(=O)(=O)CC3CCN(S(=O)(=O)C4CCC4)C3)c2)c1` (stereo not shown) [Compound I-106], the IC50 was below 10 µM at KAT-6A, below 10 µM against KAT-7, 10 to 50 µM on KAT-8 and below 10 µM against KAT-5.
Take `CCNC(=O)N[C@H]1C[C@@H](CS(=O)(=O)NNC(=O)c2cc(-c3cn(C)cn3)cc(Cl)c2F)C1` [Compound I-107]: the IC50 against KAT-6A is below 10 µM; against KAT-7 it was below 10 µM; at KAT-8, 10 to 50 µM; at KAT-5 it was below 10 µM.
